Measurements from publication PMC7375007 (Journal of clinical pharmacology, 2019).
Where two headings read alike, the source gives them in different places.

Key:
[1] = for Patients within or below the mycophenolic acid AUC0–12h target range: patients with mild gastrointestinal adverse effects (score 1–2); for Cmax / Tmax / AUC(0-t) / AUC / concentration at 12 h / clearance: human, plasma, oral; for AUC: Mycophenolic acid AUC6–12h, estimate of enterohepatic recirculation; for concentration at 12 h: Mycophenolic acid CP(12h); for clearance: Mycophenolic acid clearance; for Mycophenolic acid dose-normalized AUC0–12h: normalized to 1-mg mycophenolic acid dose equivalent
[2] = Gastrointestinal adverse effect evaluation; assay type: in vivo, human (stable renal transplant recipients); conditions: patients with score > 0
[3] = Enterohepatic circulation of mycophenolic acid; assay type: in vivo, human (stable renal transplant recipients); conditions: all patients
[4] = tacrolimus- and mycophenolic acid-treated patients; ELITE-SYMPHONY study; cited from earlier work
[5] = Tacrolimus whole-blood trough concentration; assay type: in vivo, human (stable renal transplant recipients); conditions: human, oral
[6] = with tacrolimus and enteric-coated mycophenolate sodium, female (n = 29), steady state
[7] = with tacrolimus and enteric-coated mycophenolate sodium, male (n = 38), steady state
[8] = on tacrolimus and enteric-coated mycophenolate sodium

Structure (SMILES): COc1c(C)c2c(c(O[C@@H]3O[C@H](C(=O)O)[C@@H](O)[C@H](O)[C@H]3O)c1C/C=C(\C)CCC(=O)O)C(=O)OC2 [Mycophenolic acid glucuronide]
- Mycophenolic acid glucuronide AUC0–12h, fold higher in women than men ([1]; tacrolimus group): 1.37 fold
- Mycophenolic acid glucuronide AUC0–12h [1, 6]: 1068 ± 557 mg·h/L
- Mycophenolic acid glucuronide CP(12h) [1, 6]: 75.1 ± 45.2 mg/L
- Mycophenolic acid glucuronide Cmax [1, 6]: 126000 ± 60000 ng/mL
- Mycophenolic acid glucuronide tmax [1, 6]: 3.68 ± 2.45 h
- Mycophenolic acid glucuronide AUC0–12h [1, 7]: 780 ± 336 mg·h/L
- Mycophenolic acid glucuronide CP(12h) [1, 7]: 54.5 ± 28.0 mg/L
- Mycophenolic acid glucuronide Cmax [1, 7]: 96700 ± 47700 ng/mL
- Mycophenolic acid glucuronide tmax [1, 7]: 3.89 ± 1.76 h

Structure (SMILES): COc1c(C)c2c(c(O)c1C/C=C(\C)CCC(=O)O)C(=O)OC2 [Mycophenolic acid]
- Patients within or below the mycophenolic acid AUC0–12h target range of 30–60 mg·h/L ([1]; cyclosporine and mycophenolate mofetil, patients with no gastrointestinal adverse effects): 87%
- Patients within or below the mycophenolic acid AUC0–12h target range ([1]; cyclosporine): 88.5%
- Cmax ([1]; female, 546 mg): 21700 ± 10600 ng/mL
- Tmax ([1]; female, 546 mg): 3.16 ± 2.57 h
- Cmax ([1]; female, 591 mg): 6490 ± 2300 ng/mL
- Tmax ([1]; female, 591 mg): 2.07 ± 0.11 h
- AUC(0-t) ([1]; female, Mycophenolic acid AUC0–12h, with cyclosporine and mycophenolate mofetil, female (n = 14), steady state): 40100 ± 13800 ng·h/mL
- AUC(0-t) ([1]; female, Mycophenolic acid AUC0–12h, with tacrolimus and enteric-coated mycophenolate sodium, female (n = 29), steady state): 73400 ± 31200 ng·h/mL
- AUC ([1]; female, with cyclosporine and mycophenolate mofetil, female (n = 14)): 15400 ± 5510 ng·h/mL
- AUC ([1]; female, with tacrolimus and enteric-coated mycophenolate sodium, female (n = 29)): 29300 ± 24000 ng·h/mL
- concentration at 12 h ([1]; female, with cyclosporine and mycophenolate mofetil, female (n = 14), steady state): 2200 ± 1000 ng/mL
- concentration at 12 h ([1]; female, with tacrolimus and enteric-coated mycophenolate sodium, female (n = 29), steady state): 4300 ± 2300 ng/mL
- clearance ([1]; female, African American women receiving tacrolimus): 162 mL/min
- clearance ([1]; with cyclosporine, all patients): 342 mL/min
- clearance ([1]; with tacrolimus, all patients): 177 mL/min
- AUC(0-t) ([1]; male): 65500 ± 30600 ng·h/mL
- Cmax ([1]; male, 587 mg): 19600 ± 11200 ng/mL
- Tmax ([1]; male, 587 mg): 2.88 ± 2.06 h
- Cmax ([1]; male, 715 mg): 10300 ± 6500 ng/mL
- Tmax ([1]; male, 715 mg): 1.92 ± 1.2 h
- AUC(0-t) ([1]; male, Mycophenolic acid AUC0–12h, with cyclosporine and mycophenolate mofetil, male (n = 66), steady state): 41000 ± 18400 ng·h/mL
- AUC ([1]; male, with cyclosporine and mycophenolate mofetil, male (n = 66)): 12600 ± 7400 ng·h/mL
- AUC ([1]; male, with tacrolimus and enteric-coated mycophenolate sodium, male (n = 38)): 23800 ± 13400 ng·h/mL
- concentration at 12 h ([1]; male, with cyclosporine and mycophenolate mofetil, male (n = 66), steady state): 2100 ± 1500 ng/mL
- concentration at 12 h ([1]; male, with tacrolimus and enteric-coated mycophenolate sodium, male (n = 38), steady state): 3900 ± 2200 ng/mL
- Patients within the target mycophenolic acid AUC0–12h range of 30–60 mg h/L ([1]; men receiving cyclosporine and mycophenolate mofetil): 54.5%
- Patients exceeding the target mycophenolic acid AUC0–12h range of 30–60 mg h/L ([1]; men receiving tacrolimus and enteric-coated mycophenolate sodium): 50%
- Patients achieving target mycophenolic acid AUC0–12h of 30–60 mg·h/L ([1]; on cyclosporine and mycophenolate mofetil): 56.3%
- Patients above the mycophenolic acid AUC0–12h target of 60 mg·h/L [1, 8]: 56.7%
- Patients achieving target mycophenolic acid AUC0–12h of 30–60 mg·h/L [1, 8]: 34.3%
- Patients exceeding the mycophenolic acid AUC0–12h target range ([1]; tacrolimus and enteric-coated mycophenolate sodium, moderate to severe gastrointestinal adverse effects (score ≥ 3)): 50%
- Patients above the mycophenolic acid AUC0–12h target range ([1]; tacrolimus and enteric-coated mycophenolate sodium, patients with no gastrointestinal adverse effects): 78.6%
- Lymphopenic patients with mycophenolic acid AUC0–12h > 60 mg·h/L ([1]; tacrolimus-based regimen (22 of 35)): 62.9%
- Patients within or below the mycophenolic acid AUC0–12h target range ([1]; tacrolimus): 53.8%
- Mycophenolic acid dose-normalized AUC0–12h ([1]; with cyclosporine and mycophenolate mofetil, female (n = 14)): 0.066 ± 0.015 mg·h/L/mg
- Mycophenolic acid dose-normalized AUC0–12h ([1]; with cyclosporine and mycophenolate mofetil, male (n = 66)): 0.058 ± 0.032 mg·h/L/mg
- Mycophenolic acid dose-normalized AUC0–12h ([1]; with tacrolimus and enteric-coated mycophenolate sodium, female (n = 29)): 0.127 ± 0.053 mg·h/L/mg
- Mycophenolic acid dose-normalized AUC0–12h ([1]; with tacrolimus and enteric-coated mycophenolate sodium, male (n = 38)): 0.103 ± 0.045 mg·h/L/mg
- Patients within the target mycophenolic acid AUC0–12h range of 30–60 mg h/L ([1]; women receiving cyclosporine and mycophenolate mofetil): 64.3%
- Patients exceeding the target mycophenolic acid AUC0–12h range of 30–60 mg h/L ([1]; women receiving tacrolimus and enteric-coated mycophenolate sodium): 65.5%
- Gastrointestinal adverse effect score ([2]; mycophenolic acid AUC0–12h < 30 mg·h/L (n = 22)): 1.7 ± 0.8
- Gastrointestinal adverse effect score ([2]; mycophenolic acid AUC0–12h > 60 mg h/L (n = 34)): 3.0 ± 1.7
- Gastrointestinal adverse effect score ([2]; mycophenolic acid AUC0–12h within 30–60 mg·h/L (n = 54)): 2.2 ± 1.1
- Enterohepatic circulation, frequency ([3]; with cyclosporine): 45%
- Enterohepatic circulation, frequency ([3]; with tacrolimus): 78%
- Enterohepatic circulation, frequency ([3]; with tacrolimus, listed as mycophenolic acid): More than 75%

Structure (SMILES): C=CC[C@@H]1/C=C(\C)C[C@H](C)C[C@H](OC)[C@H]2O[C@@](O)(C(=O)C(=O)N3CCCC[C@H]3C(=O)O[C@H](/C(C)=C/[C@@H]3CC[C@@H](O)[C@H](OC)C3)[C@H](C)[C@@H](O)CC1=O)[C@H](C)C[C@@H]2OC [Tacrolimus]
- Diarrhea [4]: 25.3%
- concentration at 0 h ([5]; female): 7.1 ± 1.9 ng/mL
- concentration at 0 h ([5]; male): 7.3 ± 2 ng/mL
